Measurements reported in ChEMBL document CHEMBL1128906, “Synthesis and NK-2 antagonist effect of 1,6-diphenyl-pyrazolo [3,4-d]-thiazolo[3,2-a]4H-pyrimidin-4-one” (Bioorg Med Chem Lett, 1996).
Active and inactive are the calls of the source. No cut-off for these calls is given here.

Key:
Format in all cases: functional
Substance-K receptor = biological target: T1, Substance-K receptor (Cavia porcellus, UniProt Q64077); assay: Compound was evaluated for NK-2 receptor antagonistic activity in the guinea pig trachea; settings: read-out: pA2 (converted)
T1 sequence (Q64077 whole entry): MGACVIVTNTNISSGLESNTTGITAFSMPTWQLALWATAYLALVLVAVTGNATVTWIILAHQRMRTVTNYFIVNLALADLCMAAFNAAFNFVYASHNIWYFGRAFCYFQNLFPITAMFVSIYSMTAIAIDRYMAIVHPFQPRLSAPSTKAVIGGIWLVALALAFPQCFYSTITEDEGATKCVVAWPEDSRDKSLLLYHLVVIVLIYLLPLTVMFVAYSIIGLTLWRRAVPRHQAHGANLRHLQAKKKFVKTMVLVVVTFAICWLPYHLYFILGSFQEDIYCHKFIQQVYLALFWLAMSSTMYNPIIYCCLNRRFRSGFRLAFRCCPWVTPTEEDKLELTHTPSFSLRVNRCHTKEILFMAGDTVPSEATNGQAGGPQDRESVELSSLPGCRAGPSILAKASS

[1] = biological target: Substance-P receptor (Cavia porcellus) (UniProt P30547); assay: Compound was evaluated for NK-1 receptor antagonistic activity in the guinea pig trachea; Inactive
[2] = biological target: T2, Neuromedin-K receptor (Cavia porcellus) (UniProt P30098); assay: Compound was evaluated for NK-3 receptor antagonistic activity in the guinea pig trachea; Inactive
T2 sequence (whole entry): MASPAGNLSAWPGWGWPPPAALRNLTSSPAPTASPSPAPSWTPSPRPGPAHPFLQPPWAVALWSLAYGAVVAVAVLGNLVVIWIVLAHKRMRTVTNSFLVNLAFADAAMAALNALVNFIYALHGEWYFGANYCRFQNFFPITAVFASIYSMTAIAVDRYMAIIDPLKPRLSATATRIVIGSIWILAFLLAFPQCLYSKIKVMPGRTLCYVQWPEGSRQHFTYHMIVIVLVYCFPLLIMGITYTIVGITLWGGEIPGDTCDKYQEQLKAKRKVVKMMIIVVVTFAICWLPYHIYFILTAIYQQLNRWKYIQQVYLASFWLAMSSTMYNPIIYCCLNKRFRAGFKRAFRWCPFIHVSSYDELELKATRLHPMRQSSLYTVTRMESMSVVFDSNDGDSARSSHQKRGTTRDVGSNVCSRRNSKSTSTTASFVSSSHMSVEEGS

Substance-P receptor (Cavia porcellus), sequence (P30547 whole entry): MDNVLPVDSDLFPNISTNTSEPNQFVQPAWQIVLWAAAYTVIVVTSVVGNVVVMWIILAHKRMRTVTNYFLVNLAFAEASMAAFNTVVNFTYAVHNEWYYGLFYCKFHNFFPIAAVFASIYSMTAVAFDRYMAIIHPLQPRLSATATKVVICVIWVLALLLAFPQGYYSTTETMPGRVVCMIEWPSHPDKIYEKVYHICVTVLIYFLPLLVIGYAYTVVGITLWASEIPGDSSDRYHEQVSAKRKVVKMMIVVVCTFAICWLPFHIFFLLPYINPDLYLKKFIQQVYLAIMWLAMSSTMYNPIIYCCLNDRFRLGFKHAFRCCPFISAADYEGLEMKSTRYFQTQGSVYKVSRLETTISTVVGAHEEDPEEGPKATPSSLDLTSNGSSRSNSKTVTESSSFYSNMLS

**Q.** Which Kb (Substance-K receptor) does the source give for `O=c1c2cnn(-c3ccccc3)c2nc2scc(-c3ccccc3)n12` here?
**A.** 50.1 nM

**Q.** What about the pA2 [1] of the same compound?
**A.** inactive

**Q.** What about the pA2 [2] of the same compound?
**A.** inactive
